# From patent publication US4343943A, “Cephalosporin analogs” (Kyowa Hakko Kogyo Co., Ltd., priority 1978, dated 1982)
# Read-outs that look alike come from different tables or passages of the source.
# Tests used:
# Format in all cases: cell-based
# [1] = system: Staphylococcus aureus 209-P; experiment: Antibacterial activity, Heart Infusion Agar Dilution Method (pH 7.2)
# Protocol: (§1) Antibacterial activities of the compounds obtained in Examples 6 and 8 are measured according to the Heart Infusion Agar Dilution Method (pH 7.2). Cefazolin is used as a control.
# Serratia marcescens T-55 = experiment: as above; conditions: T55
# Protocol: as §1
# Serratia marcescens T-26 = experiment: as above; conditions: T26
# Protocol: as §1
# [2] = system: Staphylococcus epidermidis; experiment: as above
# Protocol: as §1
# Escherichia coli NIHJC-2 = experiment: as above
# Protocol: as §1
# Proteus mirabilis 1287 = experiment: as above
# Protocol: as §1
# Pseudomonas putida F264 = experiment: as above
# Protocol: as §1
# [3] = system: Pseudomonas aeruginosa 145; experiment: as above
# Protocol: as §1
# Proteus vulgaris 6897 = experiment: as above
# Protocol: as §1
# Proteus rettgeri KY4289 = experiment: as above; conditions: Providencia rettgeri
# Protocol: as §1
# [4] = system: Staphylococcus aureus Smith; experiment: as above
# Protocol: as §1
# [5] = system: Klebsiella pneumoniae Y-60; experiment: as above; conditions: Y60
# Protocol: as §1
# Escherichia coli Juhl = experiment: as above
# Protocol: as §1
# [6] = system: Klebsiella pneumoniae 8045; experiment: as above
# Protocol: as §1
# [7] = system: Escherichia coli GN 2411-5; experiment: as above; conditions: GN2411
# Protocol: as §1
# Proteus morganii KY4298 = experiment: as above; conditions: Morganella morganii
# Protocol: as §1
# [8] = system: Pseudomonas aeruginosa No. 1; experiment: as above
# Protocol: as §1
# [9] = system: Staphylococcus aureus KY4279; experiment: Antibacterial activity, Heart Infusion Agar Dilution Method (pH 7.0)
# Protocol: (§2) Antibacterial activities of the product obtained in this Example are measured according to the Heart Infusion Agar Dilution Method (pH 7.0).
# Shigella sonnei KY4281 = experiment: as above
# Protocol: as §2
# Proteus vulgaris KY4277 = experiment: as above
# Protocol: as §2
# Escherichia coli KY4271 = experiment: as above
# Protocol: as §2
# Bacillus subtilis KY4273 = experiment: as above
# Protocol: as §2
# [10] = system: Klebsiella pneumonia KY4275; experiment: as above; conditions: Klebsiella pneumoniae
# Protocol: as §2
# Vibrio percolans KY4174 = experiment: as above; conditions: Comamonas terrigena
# Protocol: as §2
# [11] = system: Salmonella typhosa KY4278; experiment: as above; conditions: Salmonella enterica
# Protocol: as §2
# Erwinia aroides KY3241 = experiment: as above
# Protocol: as §2
# [12] = NIHJC2, Escherichia coli NIHJC-2, agar dilution, pH 7.2, read-out: MIC
# [13] = Escherichia coli Juhl, agar dilution, read-out: MIC
SMILES,MIC [1] [µg/mL],MIC (Serratia marcescens T-55) [µg/mL],MIC (Serratia marcescens T-26) [µg/mL],MIC [2] [µg/mL],MIC (Escherichia coli NIHJC-2; [12]) [µg/mL],MIC (Proteus mirabilis 1287) [µg/mL],MIC (Pseudomonas putida F264) [µg/mL],MIC [3] [µg/mL],MIC (Proteus vulgaris 6897) [µg/mL],MIC (Proteus rettgeri KY4289) [µg/mL],MIC [4] [µg/mL],MIC [5] [µg/mL],MIC (Escherichia coli Juhl; [13]) [µg/mL],MIC [6] [µg/mL],MIC [7] [µg/mL],MIC (Proteus morganii KY4298) [µg/mL],MIC [8] [µg/mL],also measured
"CO/N=C(/C(=O)N[C@@H]1C(=O)N2C(C(=O)O)=CC=C[C@H]12)c1csc(N)n1 (relative stereo) [Example 6, (±)-cis-7-[2-(2-amino-4-thiazolyl)-2-anti-methoxyiminoacetamido]-1-azabicyclo[4,2,0]oct-2,4-diene-8-on-2-carboxylic acid]",≥ 50,≥ 50,≥ 50,≥ 50,≥ 50,≥ 50,≥ 50,≥ 50,≥ 50,≥ 50,≥ 50,≥ 50,≥ 50,50,≥ 50,≥ 50,≥ 50,–
"CO/N=C(\C(=O)N[C@@H]1C(=O)N2C(C(=O)O)=CC=C[C@H]12)c1csc(N)n1 (relative stereo) [Example 8, (±)-cis-7-[2-(2-amino-4-thiazolyl)-2-syn-methoxyiminoacetamido]-1-azabicyclo[4,2,0]oct-2,4-diene-8-on-2-carboxylic acid]",≥ 50,50,≥ 50,≥ 50,25,6.25,12.5,≥ 50,6.25,6.25,≥ 50,≥ 50,50,6.25,25,12.5,≥ 50,–
"Cc1nnc(SCC2=C(C(=O)O)N3C(=O)[C@@H](NC(=O)Cn4cnnn4)[C@H]3SC2)s1 [Cefazolin, reference compound]",< 0.05,50,> 100,0.78,–,12.5,> 100,> 100,12.5,25,0.4,3.12,–,0.78,–,> 100,–,"MIC (Escherichia coli NIHJC-2; Escherichia coli, NIHJC2, pH 7.2): 1.56 µg/mL; MIC (Escherichia coli Juhl; Escherichia coli): 1.56 µg/mL"
"O=C(Cc1cccs1)NC1C(=O)N2C(C(=O)O)=CC=CC12 (stereo not drawn) [Example 10, (±)-cis-7-[2-(thiophene-2-yl)acetylamino]-1-azabicyclo[4,2,0]oct-2,4-diene-8-on-2-carboxylic acid]",–,–,–,–,–,–,–,–,–,–,–,–,–,–,–,–,–,MIC [9]: 27.8 µg/mL; MIC (Shigella sonnei KY4281): > 55.6 µg/mL; MIC (Proteus vulgaris KY4277): 27.8 µg/mL; MIC (Escherichia coli KY4271): > 55.6 µg/mL; MIC (Bacillus subtilis KY4273): 55.6 µg/mL; MIC [10]: 27.8 µg/mL; MIC (Vibrio percolans KY4174): 55.6 µg/mL; MIC [11]: 13.9 µg/mL; MIC (Erwinia aroides KY3241): 13.9 µg/mL
